Experiments:
[1] = demetalation of chlorophyll a in acidic methanol, kinetic mode ESI-MS; format: physicochemical; conditions: HCl, quadratic fit
Description: (§1) For demetalation experiments, syringe 1 contained 40 μM chlorophyll in methanol and syringe 2 contained HCl in methanol at concentrations ranging from 30 to 100 mM. Both syringes were advanced at 30 μL/min for a total flow rate 60 μL/min in the reaction capillary. Ubiquitin refolding studies were carried out by having syringe 1 filled with 20 μM protein in 46% water, 50% methanol, and 4% acetic acid. Syringe 2 contained water. The two syringes were advanced at 20 and 50 μL/min, respectively, for a total flow rate of 70 μL/min. Final solution conditions after mixing ere 14.3% methanol and 1.1% acetic acid.
On-Line Kinetic ESI-MS Measurements. These measurements were carried out using a custom-built continuous-flow mixing apparatus that is based on two concentric capillaries (FIG. 1).
Instrument Performance in Kinetic Mode. […]
The apparatus depicted in FIG. 1 was used for monitoring the kinetics of chlorophyll demetalation in methanol solution for acid concentrations ranging from 15 to 50 mM. […] Nevertheless, it is clear that the temporal resolution of our novel mixing device exceeds that of other on-line ESI-MS techniques, which so far allowed rate constants up to ˜25 s^−1 to be measured.^16

[2] = demetalation of chlorophyll a in acidic methanol, optical stopped-flow spectroscopy; format: physicochemical; conditions: 664 nm, quadratic fit
Description: (§2) Optical Stopped-Flow Measurements. These measurements were performed on an SFM-4 instrument (Bio-Logic, Claix, France), using an observation wavelength of 664 nm for monitoring the demetalation of chlorophyll. The two stepper motor-driven syringes used were advanced at 3.5 mL/s each, for an instrument dead time of 3.3 ms. All experiments were carried out at room temperature (22±1° C.).
Instrument Performance in Kinetic Mode. The demetalation of chlorophyll a in acidic solution is a well-characterized process, during which the central magnesium of the porphyrin is displaced by two protons.^40-42 This reaction represents a convenient test system, because it allows kinetic measurements by ESI-MS and by standard optical stopped-flow absorption spectroscopy. When studied under pseudo-first-order conditions, the rate constant of the reaction is given by kobs=k[H^+]^2. The intrinsic rate constant k in this expression is known to be strongly solvent-dependent.^41, 42

α-chymotrypsin = molecular target: T1, α-chymotrypsin (Bos taurus, UniProt P00766); test: pre-steady-state hydrolysis of p-NPA by chymotrypsin, on-line kinetic ESI-MS; format: biochemical; conditions: fit of kobs to Equation 12, pH 7.8, 20% methanol, 22 °C
T1 construct: Peaks labeled with α and δ′ correspond to α- and δ′-chymotrypsin, respectively; purchased Sigma (St. Louis, Mo.)
From the text: (§3) Chymotrypsin is a member of the serine protease family. ^86-88 Ser195 represents the reactive nucleophile in the active site of this enzyme. Although the physiological role of chymotrypsin is to serve as an endopeptidase, it also catalyzes the hydrolysis of esters, including numerous synthetic substrate analogs. […] Subsequently, Ser195 forms a covalent bond with the carbonyl carbon of the substrate, thus releasing the first hydrolysis product P1. The rate constant of this acylation step is denoted as k2. The subsequent de-acylation has a rate constant of k3, and it leads to regeneration of the free enzyme by hydrolysis of the Ser195-ester bond, through release of the second hydrolysis product P2. For conditions where S is present in large excess, it can be shown that the concentration of P1 as a function of time t in the pre-steady-state regime is given by Equation 9^58, 59: [P1](t)=C1(1−exp(−kobst))+C2t (9) and the concentration-time profile of the covalent EP2 complex can be expressed as Equation 10: [EP2](t)=C3(1−exp(−kobst)) (10). Consequently, the sum of the concentrations of free enzyme and ES complex are given by Equation 11: ([Efree]+[ES](t)=C4exp(−kobst)+C5 (11). C1, . . . , C5 in these expressions are constants, and kobs is given by Equation 12: [formula] where [S] is the substrate concentration. Measurements of kobs as a function of substrate concentration allow the determination of the parameters k2, k3, and Kd in Scheme 8.
(§4) On-line kinetic ESI-MS experiments. ESI-MS-based kinetic experiments were carried out on a custom built continuous flow mixing apparatus described in FIG. 2. Briefly, this setup consists of two concentric capillaries, that are connected to sample injection syringes. Reactions are initiated by mixing of two solutions at the outlet of the inner capillary. The reaction time is determined by the solution flow rate, and by the distance between the mixing region and the end of the outer capillary. For experiments in kinetic mode, the inner capillary is steadily withdrawn from the end of the outer capillary, while the mass spectrometer is set to monitor selected m/z values, corresponding to specific solution-phase species, as a function of time. In spectral mode, the inner capillary is set at specific distances from the end of the outer capillary, such that entire mass spectra can be obtained for selected reaction times.
(§5) For the experiments described here, both reactant solutions were introduced into the apparatus at 20 μL/min using syringe pumps (Harvard Apparatus, Saint Laurent, QC) for a total flow rate of 40 μL/min after the mixer. […]

δ′-chymotrypsin = molecular target: T2, δ′-chymotrypsin (Bos taurus, UniProt P00766); test: as above; format: biochemical; conditions: fit of kobs to Equation 12, pH 7.8, 20% methanol, 22 °C
T2 construct: Peaks labeled with α and δ′ correspond to α- and δ′-chymotrypsin, respectively; purchased Sigma (St. Louis, Mo.)
From the text: as §3, §4, §5

[3] = molecular target: T3, chymotrypsin (a mixture of the α form and δ′ forms) (Bos taurus, UniProt P00766); test: p-NPA hydrolysis by optical stopped-flow spectroscopy (release of p-NP); format: biochemical; conditions: weighted average of α and δ′-chymotrypsin
T3 construct: Chymotrypsin (a mixture of the α form and δ′ forms); purchased Sigma (St. Louis, Mo.)
Description: as §2
Enzymatic reactions. The limited solubility of p-NPA in purely aqueous solutions necessitated the use of 20% (v/v) methanol in the reaction mixture. […] These solutions were mixed in a 1:1 ratio with 32 μM chymotrypsin in water for a final pH of 7.8, which corresponds to the pH optimum of the enzyme. […] Experiments on bradykinin were carried out in an analogous manner, but in purely aqueous solution, and by using 20% (v/v) acetic acid in water as makeup solvent. […] Substrate concentrations given below represent the values in the reaction mixture, i.e., after the first mixing step. […]
Measurements of kobs as a function of substrate concentration were also carried out by stopped-flow spectroscopy, using the release of the yellow p-NP moiety as optical probe. In contrast to the ESI-MS experiments, these optical studies cannot discern the two forms of the enzyme, and therefore the measured data represent a weighted average of the substrate conversion caused by a and δ′-chymotrypsin. […]

chymotrypsin = molecular target: T4, chymotrypsin (Bos taurus, UniProt P00766); conditions: previously reported, cited from earlier work
T4 construct: Chymotrypsin (a mixture of the α form and δ′ forms); purchased Sigma (St. Louis, Mo.)

[4] = refolding of ubiquitin from the A state, kinetic mode ESI-MS
Description: as §1
The A state was populated by exposing the protein to 50% methanol and 4% acetic acid; refolding was initiated by mixing with an excess volume of water. ESI mass spectra of ubiquitin for different times after initiation of refolding are depicted in FIG. 7. […] This spectrum is practically indistinguishable from that of the protein prior to initiation of refolding (data not shown) and very similar to ubiquitin A state spectra that have been published previously.^14, 51 As refolding proceeds, the relative abundance of highly charged protein ions decreases and that of the […] and 7+ ions increases (FIGS. 7B,C). The final spectrum was recorded off-line 5 min after initiation of refolding in a manual mixing experiment.
The diffusion coefficient of ubiquitin can be estimated to be around D=1×10^−10 m^2/s.^52 According to condition 7, this implies that diffusion effects on the observed kinetics are negligible in an experimental time window up to τ≈2 s. The data can therefore be fitted based on eq 5 (solid lines in FIG. 8). C(τ) expressions for the 13+ and 12+ions were generated by assuming the model function C(t)=a1 exp(−kobst)+a0, whereas the analysis of the 8+ and 7+ ions was based on C(t)=b1(1−exp(−kobst))+b0. […] Instead, the kinetic profiles level off at ˜20% of their initial values. This effect can be attributed to a subpopulation of slow-folding ubiquitin molecules that contain non-native cis-proline isomers.^53 Proline isomerization, taking place on the order of tens of seconds, 54 is the rate-limiting step for the refolding of this subpopulation. […] Processes occurring on such a slow time scale are beyond the range accessible by our rapid mixing setup.

[5] = read-out: dissociation constant Kd
[6] = much higher buffer concentrations

C=Cc1c(C)c2cc3nc(c4c5[n-]c(cc6nc(cc1[n-]2)C(C)=C6CC)c(C)c5C(=O)[C@@H]4C(=O)OC)[C@@H](CCC(=O)OC/C=C(\C)CCC[C@H](C)CCC[C@H](C)CCCC(C)C)[C@@H]3C.[Mg+2] [chlorophyll a, Chlorophyll a]
intrinsic rate constant k of demetalation (kobs=k[H+]^2) [1]: 0.048±0.002 mM^−2s^−1 | intrinsic rate constant k of demetalation [2]: 0.050±0.001 mM^−2 s^−1

CC(=O)Oc1ccc([N+](=O)[O-])cc1 [p-NPA, para-nitrophenyl acetate]
k2 (acylation rate constant) (α-chymotrypsin): 3.2 ± 0.3 s⁻¹ | Kd (α-chymotrypsin; [5]): 1400 ± 200 µM | k2 (acylation rate constant) (δ′-chymotrypsin): 3.7 ± 0.3 s⁻¹ | Kd (δ′-chymotrypsin; [5]): 1700 ± 200 µM | Kd [3]: 1600 ± 100 µM | k2 [3]: 3.6 ± 0.2 s⁻¹ | Kd (chymotrypsin; [6]): 7000 µM | k2 (chymotrypsin; [6]): 3 s⁻¹ | k3 (chymotrypsin): 0.03 s⁻¹

ubiquitin
refolding kobs ([4]; 8+ ion, 14.3% methanol, 1.1% acetic acid): 5.3 s⁻¹ | refolding kobs ([4]; 9+ ion): 5.3 s⁻¹ | refolding kobs ([4]; 12+ ion): 5.2 s⁻¹ | refolding kobs ([4]; 13+ ion): 5.1 s⁻¹ | refolding kobs, average value ([4]; average of the four fits): 5.2 s⁻¹
